Assay results reported in patent US12473305B2, “Pyrazole boronic acid compound, pharmaceutical composition containing same, and uses thereof” (BEIJING SONGRUN PHARMACEUTICAL TECHNOLOGY CO., LTD., priority 2020, dated 2025).

System: human liver cancer Bel7404
Assay: Antitumor activity in vivo, Bel7404 transplanted in nude mice
Set-up: species or system male BALB/c athymic nude mice
Details: for RTV (d22): iv × 5; for Animal weight (g) (After tumor removal) / Inhibition rate %: iv × 5, d22
Procedure: In the test, the Bel7404 models of human liver cancer transplanted into 6-week-old male BALB/c athymic nude mice (purchased from Shanghai Slac Laboratory Animal Co., Ltd.) with body weight of 18-20 g were used to study the anti-tumor effect of compound 30. The dose of compound 30 was 50 mg/kg (30H group), 25 mg/kg (30 M group) and 12.5 mg/kg (30 L group), respectively, and was injected intravenously twice a week for 5 times in total; at the same time, 5-FU was used as the control drug, which was injected intraperitoneally twice a week for 7 times in total (5 mice/group for the compound 30 administration group, 5 mice in 5 FU administration group; 8 mice were used as the mock group). The long diameter a (mm) and the vertical short diameter b (mm) of the tumor were measured twice a week with a digital electronic caliper. The tumor volume calculation formula was TV=ab^2/2; and the relative tumor volume calculation formula was RTV=Vt/Vo, wherein Vo was the tumor volume measured on the first day of administration (d1), and Vt was the tumor volume at each measurement. On the 22nd day of administration (d22), the animals were sacrificed and weighed. The tumor mass was dissected and weighed. The tumor inhibition rate (tumor inhibitory rate, %) was calculated according to the following formula: […]

- Animal weight (g) (After tumor removal) (12.5 mg/kg): 23.11 ± 0.65 g
- Animal weight (g) (After tumor removal) (25 mg/kg): 21.91 ± 0.56 g
- Animal weight (g) (After tumor removal) (50 mg/kg): 19.95 ± 0.45 g
Compound: CC(C)C[C@H](NC(=O)Cn1nc(-c2cccc(OCCN3CCOCC3)c2)cc1-c1ccccc1)B(O)O.Cl [Compound 30, (R)-(3-methyl-1-(2-(3-(3-(2-morpholinoethoxy)phenyl)-5-phenyl-1H-pyrazol-1-yl)-acetamido)butyl)boronic acid hydrochloride]
- RTV (d22) (12.5 mg/kg): 4.52 ± 1.08
- Inhibition rate % (12.5 mg/kg): 24.89%
- RTV (d22) (25 mg/kg): 3.82 ± 0.67
- Inhibition rate % (25 mg/kg): 36.55%
- RTV (d22) (50 mg/kg): 2.33 ± 0.59
- Inhibition rate % (50 mg/kg): 61.29%
